Results: US20100016445A1, “TRANSDERMAL DIETHYLSTILBESTROL FOR TREATING PROSTATE CANCER” (Oregon Health and Science University, priority 2006, published 2010)

How the values were obtained:
[1] = Mouse Experiment #1: DES in mouse plasma by TSQ-ESI-MS after i.p. injection or topical DES cream; type: in vivo; conditions: ip, 0.75 mg, DES i.p. 0.75 mg, read-out: DES Amount in plasma
Procedure: 375 mg of diethylstilbestrol (DES; Sigma, cat #D4628) was then added to 2.5 ml of the lecithin solution and combined with 10 ml of the 20% poloxamer solution. This combination was stirred overnight at room temperature. The result was a viscous 3% (g/ml) DES cream, of which 0.25 ml was applied to each mouse resulting in a topical dose of approximately 7.5 mg.
100 μl samples of commercial BALB/C mouse plasma containing the following concentrations of DES were used to produce a standard curve: 0, 0.01, 0.02, 0.05, 0.08, 0.1, 0.2, 0.5, 0.8, 1.0 (nanograms of DES per milliliter of mouse plasma). Each plasma standard was spiked with 10 μl of d8-DES (Isotech, cat #614289) used as an internal standard. Prior to the next step, samples taken from live mice were exposed to 5 μl of β-glucuronidase (Sigma, cat #G7017) and incubated at 37° C. for 70 minutes at 100 rpm. The enzymatic reaction was necessary in order to separate the DES molecule from any conjugated glucoronic acid that may be present. Following this incubation, 10 μl of 6M perchloric acid and 50 μl of acetonitrile were added. Each sample was then mixed for 2 minutes, following by centrifugation at 17,000×g for 5 minutes at 5° C. The supernatant was combined with 40 μl of 0.75M potassium carbonate and mixed for 30 seconds. Precipitated potassium perchlorate was removed by centrifugation at 17,000×g for 5 minutes at 5° C. […]

[2] = system: dihydrotestosterone and testosterone; test: Mouse Experiment #2: radioimmunoassay for androgen suppression by DES; type: in vivo, athymic nude mice; conditions: DES i.p., 1 hour (used as baseline)
Procedure: Six athymic nude mice (Harlan) were used for this experiment. As above, mouse 1 received a 100 μl injection of a 7.5% DES solution in DMSO, for a total dose of […]. Mice 2, 3, 4, 5, and 6 received three applications of 0%, 0.5%, 1%, 2%, and 3% DES cream at 24 h intervals. 24 h following the final cream application and 1 h post-injection, blood was taken from each mouse by cardiac puncture. Each cardiac puncture sample was combined with 0.1 ml sodium heparin (50 mg/ml; Sigma, cat #). Blood plasma was isolated from each sample by centrifugation at 4,000 rpm for 15 minutes. This yielded approximately 0.2 to 0.4 ml of plasma from each sample.
A radioimmunoassay that detects both dihydrotestosterone and testosterone was used to assess androgen suppression by DES.

[3] = patients receiving 5 mg of DES per day, oral; cited from earlier work
[4] = oral, versus conventional ADT, non-metastatic prostate cancer; cited from earlier work
hot flashes = conditions: DES 1 mg per day, cited from earlier work
[5] = Mouse Experiment #2: DES in mouse plasma by TSQ-ESI-MS after three cream applications or i.p. injection; type: in vivo, athymic nude mice; conditions: athymic nude, ip, DES i.p. 0.75 mg, β-glucuronidase, read-out: DES Amount in plasma
Procedure: 100 μl samples of commercial BALB/C mouse plasma containing the following concentrations of DES were used to produce a standard curve: 0, 0.01, 0.02, 0.05, 0.08, 0.1, 0.2, 0.5, 0.8, 1.0 (nanograms of DES per milliliter of mouse plasma). Each plasma standard was spiked with 10 μl of d8-DES (Isotech, cat #614289) used as an internal standard. Prior to the next step, samples taken from live mice were exposed to 5 μl of β-glucuronidase (Sigma, cat #G7017) and incubated at 37° C. for 70 minutes at 100 rpm. The enzymatic reaction was necessary in order to separate the DES molecule from any conjugated glucoronic acid that may be present. Following this incubation, 10 μl of 6M perchloric acid and 50 μl of acetonitrile were added. Each sample was then mixed for 2 minutes, following by centrifugation at 17,000×g for 5 minutes at 5° C. The supernatant was combined with 40 μl of 0.75M potassium carbonate and mixed for 30 seconds. Precipitated potassium perchlorate was removed by centrifugation at 17,000×g for 5 minutes at 5° C. The resulting supernatant was subjected to TSQ-ESI-MS. The chromatography conditions were the following: 25 μl metal loop, 10 μl no waste injection; oven 22° C.; flow rate 0.3 ml/min; solvents: A=water, C=MeOH; column: Hypersil Gold 100×2.1 mm, 5 μm bore (Thermo Scientific, catalog #25005-102130; with guard column). […]

[6] = cited from earlier work
coagulation factors = conditions: in vivo; cited from earlier work
[7] = PEP group, 915 men, median follow-up 27 months

CCC(=C(CC)c1ccc(O)cc1)c1ccc(O)cc1 [DES, 4-[4-(4-hydroxyphenyl)hex-3-en-3-yl]phenol]
concentration at 1 h ([1]; no β-glucuronidase): 0.089 ng/mL | concentration at 1 h ([1]; β-glucuronidase sample prep): 1.48 ng/mL | [testosterone] [2]: 143 pg/mlI | increase in non-cancer related deaths, mostly cardiovascular [3]: 36% | urinary N-telopeptide levels (marker for bone turnover) [4]: significantly lower | patients with significant improvement of hot flashes (hot flashes; remaining patients): 14% | patients with resolution of hot flashes (hot flashes): 86% | concentration at 1 h [5]: 1.93 ng/mL

polyoestradiol phosphate [PEP]
non-fatal cardiovascular events: heart failure [6, 7]: 4.4% | non-fatal cardiovascular events: ischemic heart disease [6, 7]: 3.7% | cardiovascular or thromboembolic complications ([6]; phase I, intramuscular, 12 patients, median 12.9 months): did not cause any | Antithrombin III activity (coagulation factors): significant decrease | Factor VII (coagulation factors): no change | Fibrinogen (coagulation factors): unchanged

C[C@]12CC[C@@H]3c4ccc(O)cc4CC[C@H]3[C@@H]1CC[C@@H]2O [transdermal estradiol, estradiol]
F1.2 (coagulation factors): did not affect
